# Experimental data from patent publication US20240043439A1, “COMPOUNDS AS C5AR INHIBITORS” (Kira Pharmaceuticals (Suzhou) Ltd., priority 2020, published 2024).
# How the values were obtained:
# [1] = target: human C5a receptor (C5aR) (Homo sapiens (Human), UniProt P21730); test: Inhibition of C5a-C5aR binding (biotinylated human C5a, U937/C5aR cells, FACS)
# Procedure, shortened: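 Binding read by flow cytometry as FITC-streptavidin signal (30 min on ice) on washed cells after a 120 min on-ice incubation of compound with biotinylated human C5a (30 nM working solution). Cells used were C5aR-transfected U937, suspended at 3×10^6 cells/ml in PBS containing 0.1% BSA.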
# C5aR [2] = target: T1, C5aR (Homo sapiens (Human), UniProt P21730); test: Inhibition of C5a-C5aR binding determined by cell migration assay (U937/C5aR cells); type: cell-based; conditions: U937/C5aR cell migration towards human C5a, 180 min
# Description: Migration assay was performed by using polycarbonate membrane with 3.0 µm pore (Corning). U937/C5aR cells were collected and washed twice by PBS; cells were suspended in Hank's balanced salt solution (HBSS)+1% FBS buffer at the density of 6×10^6 cells/ml. Cells were premixed with compound and added to insert well, ligand human C5a and compound were added to bottom well in order, gently mix, incubate for 30 min at 37° C., […]. Put insert plate into bottom well, migrate for 180 min at 37° C., […]. Gently remove the insert well, add 50 μl CellTiter-Glo (Promega), gently shaking for 5 min at room temperature, transfer 150 μl mixture to black plate and read luminescence intensity by
# microplate reader (BioTek).
# C5aR [3] = target: T1, C5aR; test: Calcium mobilization (U937/C5aR or HEK293/C5aR cells, FLIPR); type: cell-based; conditions: agonist human C5a at EC80, FLIPR
# Procedure, shortened: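 FLIPR calcium-flux read-out using Fluo-4 Direct-loaded C5aR-expressing U937 or HEK293 cells stimulated with human C5a at its EC80. Compound was applied for 60 min before dye loading (50 min at 37 °C plus 10 min at room temperature) and agonist addition.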
# Sequence of human C5a receptor (C5aR) (P21730 whole entry): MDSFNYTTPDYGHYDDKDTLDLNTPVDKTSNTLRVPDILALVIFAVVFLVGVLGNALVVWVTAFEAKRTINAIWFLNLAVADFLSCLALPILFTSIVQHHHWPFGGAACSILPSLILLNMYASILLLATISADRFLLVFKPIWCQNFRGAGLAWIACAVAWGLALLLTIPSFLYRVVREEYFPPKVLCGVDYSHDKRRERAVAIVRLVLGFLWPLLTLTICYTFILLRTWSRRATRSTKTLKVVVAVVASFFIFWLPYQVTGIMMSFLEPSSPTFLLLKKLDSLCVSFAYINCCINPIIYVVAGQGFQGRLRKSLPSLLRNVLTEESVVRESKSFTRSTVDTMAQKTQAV
# T1 sequence (P21730 whole entry): as above
SMILES,IC50 [1] [nM],IC50 (C5aR [2]) [nM],IC50 (C5aR [3]) [nM]
"Cc1cccc(F)c1C(=O)N1C2CCC[C@@H]2C[C@H](C(=O)Nc2ccc3cccnc3c2)[C@@H]1c1ccc(NC2CCCC2)cc1 (mixture of isomers) [Compound 73, cis-2-(4-(cyclopentylamino)phenyl)-1-(2-fluoro-6-methylbenzoyl)-N-(quinolin-7-yl)octahydro-1H-cyclopenta[b]pyridine-3-carboxamide]",50 to 500,50 to 500,50 to 500
"Cc1cccc(F)c1C(=O)N1[C@@H]2CCC[C@@H]2C[C@H](C(=O)Nc2ccc3cnn(C4COC4)c3c2)[C@@H]1c1ccc(NC2CCCC2)cc1 (racemic) [Compound 59, cis-2-(4-(cyclopentylamino)phenyl)-1-(2-fluoro-6-methylbenzoyl)-N-(1-(oxetan-3-yl)-1H-indazol-6-yl)octahydro-1H-cyclopenta[b]pyridine-3-carboxamide]",50 to 500,50 to 500,500 to 2000
"Cc1ccc(NC(=O)[C@H]2C[C@H]3CCC[C@H]3N(C(=O)c3c(C)cccc3F)[C@H]2c2ccc(NC3CCCC3)cc2)cc1C#N (racemic) [Compound 62, cis-N-(3-cyano-4-methylphenyl)-2-(4-(cyclopentylamino)phenyl)-1-(2-fluoro-6-methylbenzoyl)octahydro-1H-cyclopenta[b]pyridine-3-carboxamide]",50 to 500,50 to 500,50 to 500
"Cc1cccc(F)c1C(=O)N1[C@@H]2CCC[C@@H]2C[C@H](C(=O)Nc2ccc3cnn(C)c3c2)[C@@H]1c1ccc(NC2CCCC2)cc1 (racemic) [Compound 66, cis-2-(4-(cyclopentylamino)phenyl)-1-(2-fluoro-6-methylbenzoyl)-N-(1-methyl-1H-indazol-6-yl)octahydro-1H-cyclopenta[b]pyridine-3-carboxamide]",–,< 50,50 to 500
"Cc1cccc(F)c1C(=O)N1[C@@H]2CCC[C@@H]2C[C@H](C(=O)Nc2ccc3ncoc3c2)[C@@H]1c1ccc(NC2CCCC2)cc1 (racemic) [Compound 67, cis-N-(benzo[d]oxazol-6-yl)-2-(4-(cyclopentylamino)phenyl)-1-(2-fluoro-6-methylbenzoyl)octahydro-1H-cyclopenta[b]pyridine-3-carboxamide]",< 50,50 to 500,50 to 500
"Cc1cccc(F)c1C(=O)N1[C@@H]2CCC[C@@H]2C[C@H](C(=O)Nc2cccc(S(C)(=O)=O)c2)[C@@H]1c1ccc(NC2CCCC2)cc1 (racemic) [Compound 70, cis-2-(4-(cyclopentylamino)phenyl)-1-(2-fluoro-6-methylbenzoyl)-N-(3-(methylsulfonyl)phenyl)octahydro-1H-cyclopenta[b]pyridine-3-carboxamide]",500 to 2000,500 to 2000,2000 to 10000
"Cc1ccc(NC(=O)[C@H]2CC[C@@H]3CCc4cccc(F)c4C(=O)N3C2c2ccc(NC3CCCC3)cc2)cc1C(F)(F)F (relative stereo) [Compound 41, cis-4-(4-(cyclopentylamino)phenyl)-7-fluoro-N-(4-methyl-3-(trifluoromethyl)phenyl)-6-oxo-1,2,3,4,6,11,12,12a-octahydrobenzo[e]pyrido[1,2-a]azepine-3-carboxamide]",500 to 2000,50 to 500,2000 to 10000
"Cc1ccc(NC(=O)[C@H]2CC[C@@H]3Cc4ccccc4C(=O)N3C2c2ccc(NC3CCCC3)cc2)cc1C(F)(F)F (relative stereo) [Compound 43, cis-4-(4-(cyclopentylamino)phenyl)-N-(4-methyl-3-(trifluoromethyl)phenyl)-6-oxo-1,3,4,6,11,11a-hexahydro-2H-pyrido[1,2-b]isoquinoline-3-carboxamide]",–,> 5000,2000 to 10000
"Cc1cccc(F)c1C(=O)N1C2CCC[C@@H]2C[C@H](C(=O)Nc2cccc(C(F)(F)F)c2)[C@@H]1c1ccc(NC2CCCC2)cc1 (relative stereo) [Compound 46, cis-2-(4-(cyclopentylamino)phenyl)-1-(2-fluoro-6-methylbenzoyl)-N-(3-(trifluoromethyl)phenyl)octahydro-1H-cyclopenta[b]pyridine-3-carboxamide]",50 to 500,50 to 500,50 to 500
"Cc1ccc(NC(=O)C2C[C@@H]3CN(C)C[C@@H]3N(C(=O)c3c(C)cccc3F)C2c2ccc(N(C)C3CCCC3)cc2)cc1C(F)(F)F (relative stereo) [Compound 144, cis-2-(4-(cyclopentyl(methyl)amino)phenyl)-1-(2-fluoro-6-methylbenzoyl)-6-methyl-N-(4-methyl-3-(trifluoromethyl)phenyl)octahydro-1H-pyrrolo[3,4-b]pyridine-3-carboxamide]",–,50 to 500,2000 to 10000
"Cc1ccc(NC(=O)C2C[C@@H]3CCC[C@@H]3N(C(=O)c3c(C)cccc3F)C2c2ccc(NC3CCCC3)cc2)cc1C(F)(F)F (relative stereo) [Compound 193, cis-2-(4-(cyclopentylamino)phenyl)-1-(2-fluoro-6-methylbenzoyl)-N-(4-methyl-3-(trifluoromethyl)phenyl)octahydro-1H-cyclopenta[b]pyridine-3-carboxamide]",–,50 to 500,< 50
"Cc1ccc(NC(=O)[C@H]2CCCN(C(=O)c3c(C)cccc3F)[C@H]2C2CCC3(CCOC3)CC2)cc1C(F)(F)F (relative stereo) [Compound 203, cis-1-(2-fluoro-6-methylbenzoyl)-N-(4-methyl-3-(trifluoromethyl)phenyl)-2-(2-oxaspiro[4.5]decan-8-yl)piperidine-3-carboxamide]",–,500 to 2000,2000 to 10000
"Cc1ccc(NC(=O)[C@@H]2CC(O)CN(C(=O)c3c(C)cccc3F)[C@@H]2c2ccc(NC3CCCC3)cc2)cc1C(F)(F)F (relative stereo) [Compound 204, cis-2-(4-(cyclopentylamino)phenyl)-1-(2-fluoro-6-methylbenzoyl)-5-hydroxy-N-(4-methyl-3-(trifluoromethyl)phenyl)piperidine-3-carboxamide]",–,50 to 500,2000 to 10000
"Cc1cccc(F)c1C(=O)N1C2CCCC2CC(C(=O)Nc2ccc3c(cnn3C)c2)C1c1ccc(CN2CCC[C@@H]2C(F)(F)F)cc1 (stereo in doubt) [Compound 205, cis-1-(2-fluoro-6-methylbenzoyl)-N-(1-methyl-1H-indazol-5-yl)-2-(4-(((R)-2-(trifluoromethyl)pyrrolidin-1-yl)methyl)phenyl)octahydro-1H-cyclopenta[b]pyridine-3-carboxamide]",–,< 50,–
"Cc1ccc(NC(=O)[C@H]2CCCN(S(=O)(=O)c3c(F)c(F)c(F)c(F)c3F)[C@H]2c2ccc(NC3CCCC3)cc2)cc1C(F)(F)F [Compound 37, (2R,3S)-2-(4-(cyclopentylamino)phenyl)-N-(4-methyl-3-(trifluoromethyl)phenyl)-1-((perfluorophenyl)sulfonyl)piperidine-3-carboxamide]",–,> 5000,2000 to 10000
"Cc1ccc(NC(=O)[C@H]2CCCN(c3nccc4cccnc34)[C@H]2c2ccc(N(C(=O)OCc3ccccc3)C3CCCC3)cc2)cc1C(F)(F)F [Compound 164, benzyl cyclopentyl(4-((2R,3S)-3-((4-methyl-3-(trifluoromethyl)phenyl)carbamoyl)-1-(1,7-naphthyridin-8-yl)piperidin-2-yl)phenyl)carbamate]",–,2000 to 5000,2000 to 10000
"Cc1ccc(NC(=O)[C@H]2CCCN[C@H]2c2ccc(N(c3nccc4cccnc34)C3CCCC3)cc2)cc1C(F)(F)F [Compound 168, (2R,3S)-2-(4-(cyclopentyl(1,7-naphthyridin-8-yl)amino)phenyl)-N-(4-methyl-3-(trifluoromethyl)phenyl)piperidine-3-carboxamide]",–,> 5000,2000 to 10000
"Cc1cccc(F)c1C(=O)N1CCC[C@H](c2nc3cc(C(C)(C)C)ccc3o2)[C@@H]1c1ccc(NC2CCCC2)cc1 [Compound 181, ((2R,3S)-3-(5-(tert-butyl)benzo[d]oxazol-2-yl)-2-(4-(cyclopentylamino)phenyl)piperidin-1-yl)(2-fluoro-6-methylphenyl)methanone]",–,> 5000,2000 to 10000
"Cc1ccc(NC(=O)[C@H]2CCCN(C(=O)c3c(C)noc3C)[C@H]2c2ccc(NC3CCCC3)cc2)cc1C(F)(F)F [Compound 190, (2R,3S)-2-(4-(cyclopentylamino)phenyl)-1-(3,5-dimethylisoxazole-4-carbonyl)-N-(4-methyl-3-(trifluoromethyl)phenyl)piperidine-3-carboxamide]",500 to 2000,–,2000 to 10000
"Cc1ccc(NC(=O)[C@H]2CCCN[C@H]2c2ccc(NC3CCCC3)cc2)cc1C(F)(F)F [Compound 200, (2R,3S)-2-(4-(cyclopentylamino)phenyl)-N-(4-methyl-3-(trifluoromethyl)phenyl)piperidine-3-carboxamide]",> 5000,–,2000 to 10000
"Cc1cccc(F)c1C(=O)N1C2CCCC2CC(C(=O)Nc2ccc3c(c2)CCN(C(=O)OC(C)(C)C)C3)C1c1ccc(NC2CCCC2)cc1 (stereo not drawn) [Compound 202, tert-butyl 6-cis-2-(4-(cyclopentylamino)phenyl)-1-(2-fluoro-6-methylbenzoyl)octahydro-1H-cyclopenta[b]pyridine-3-carboxamido)-3,4-dihydroisoquinoline-2(1H)-carboxylate]",> 5000,–,2000 to 10000
